Assay results taken from patent publication US20220372014A1, “NEUROPROTECTIVE COMPOUNDS AND METHODS OF USE THEREOF” (The Johns Hopkins University, priority 2019, published 2022).
Entries after “also recorded” stand apart in the source; their conditions may differ.

Key:
SH-SY5Y cells = assay: MNNG-induced parthanatic cell death in SH-SY5Y cells (Alamar blue cell viability); assay type: cell-based; details: for inhibition of MNNG-induced parthanatic cell death: 50 μM MNNG for 15 min, viability after 24 h; for IC50: Homo sapiens, SH-SY5Y, read-out: IC50, MNNG-induced parthanatic cell death
Description: We developed an assay to screen for PAAN/MIF nuclease inhibitors. Single-stranded PAAN/MIF nuclease DNA substrate (FIG. 10A) was amine modified on the 5′ end and immobilized on a plate. Hybridization with a biotin-labeled complementary oligonucleotide followed by addition of streptavidin conjugated horseradish peroxidase enzyme (HRP) leads to retention of HRP on the surface within each well in the presence of intact PAAN/MIF nuclease DNA substrate, which can be quantitatively detected through colorimetric change at 450 nm using the HRP substrate 3,3′,5,5′-tetramethylbenzidine (TMB). In the presence of WT PAAN/MIF, there is reduced signal, indicative of cleavage of the PAAN/MIF nuclease substrate, while the signal is not attenuated without recombinant PAAN/MIF (FIGS. 1 and 10B). […] Thus, the rapafucin library containing 45,000 macrocyclic compounds in 3,000 pools of 15 compounds was screened using this assay. […] Several pools were identified that inhibit PAAN/MIF nuclease activity from the primary screen (FIG. 4A). […] Nine pools of compounds were identified that both inhibit PAAN/MIF cleavage of the substrate and protect against MNNG-induced parthanatic cell death by greater than 70% (FIG. 10D). […] Next, the 90 individual compounds in the 6 pools were synthesized and further assessed for inhibition of PAAN/MIF nuclease activity and MNNG-induced parthanatic cell death. Among them 12 compounds (compounds 16-18, 26-28, 41, 56, 66, 67, 76, and 77) were identified that block MIF nuclease activity and MNNG-induced parthanatic cell death by greater than 60% (FIG. 10F). Dose dependence (0.1 to 1.0 μM) were assessed for the 12 compounds against MNNG-induced parthanatic cell death (FIG. 11A and Table 2) and inhibition of PAAN MIF nuclease activity against the RF (FIG. 111B) and PS30 substrates (FIG. 11C).
Cell culture, transfection, primary neuronal culture and treatment. SH-SY5Y cells (ATCC) were cultured in DMEM containing 10% fetal bovine serum and penicillin/streptomycin at 37° C. under 5% C02. The cells were transfected using PolyFect reagent (Qiagen). Parthanatos was induced by the treatment of 50 μM MNNG for 15 min in SH-SY5Y cells. ABT-888 or PAAN/MIF inhibitors were pretreated with indicated concentration 1 h before MNNG treatment and cell death were assessed after 24 h. Primary cortical neurons from WT, PAAN/MIF KO, E22Q KI or P1G KI embryos were prepared as previously described See Kam et al. (2018) Science 362:eaat8407. Briefly, the cortex was dissected and cultured at embryonic day 16 in neurobasal media supplemented with B-27, 0.5 mM L-glutamine, penicillin and streptomycin (Invitrogen). Primary neurons were infected with AAV2-control, AAV2-PAAN/MIF WT, AAV2-PAAN/MIF E22Q, AAV2-PAAN/MIF E22A or AAV2-MIF P1G (ViGene Biosciences) at days in vitro (DIV) 4-5. ABT-888 or PAAN/MIF inhibitors were applied to neurons 1 h before α-syn PFF treatment. The neuron growth medium was replaced with fresh medium alone or including inhibitors every 3-4 days. α-syn PFF was added at DIV 7 and further incubated for indicated times followed by the cell death assay or biochemical experiments.
Cell death and viability assessment. Primary cultured cortical neurons were treated with 5 μg/ml of α-syn PFF for 14 days and cell death was determined by staining of all nuclei with 7 μM Hoechst 33342 and dead cell nuclei with 2 μM propidium iodide (PI) (Invitrogen). The numbers of total and dead cells were counted with the Axiovision 4.6 software (Carl Zeiss). Cell viability was determined by fluorescence at an excitation wavelength 570 nm and an emission wavelength 585 nm using Alamar Blue (Invitrogen). […]

PAAN/MIF = target: T1, PAAN/MIF (Homo sapiens, UniProt P14174); assay: In vitro PAAN/MIF nuclease assay (PS30 or RF substrate, PAGE gel, noncleaved substrate DNA); assay type: biochemical; details: RF and PS30 substrates
T1 construct: GST (N, cleaved yes); made in house; host or cells: Escherichia coli
T1 sequence (P14174 1-115): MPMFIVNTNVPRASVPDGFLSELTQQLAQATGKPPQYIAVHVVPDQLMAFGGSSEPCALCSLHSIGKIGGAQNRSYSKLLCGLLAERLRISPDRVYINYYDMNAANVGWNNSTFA
Description: Nuclease assay. Purified PAAN/MIF protein (4 μM) was incubated with compounds (10 μM) in the nuclease buffer [10 mM Tris-C1 (pH 7.0) and 10 mM MgCl2] for 20 m on ice. Then samples were added with 1 μM of PAAN/MIF substrate (PS30 or RF) and incubated for 1 h at 37° C. The reaction was terminated with loading buffer containing 10 mM EDTA and separated on 15% TBE-urea polyacrylamide (PAGE) gel or 20% TBE PAGE gel.
Purification of PAAN/MIF recombinant proteins. Human PAAN/MIF (NM_002415) cDNA and its variants were subcloned into pGEX-6β-1 vector (GE Healthcare) and mutants were generated using a QuikChange site-directed mutagenesis kit (Stratagene). The sequences were confirmed by automated DNA sequencing. The protein was expressed and purified from Escherichia coli by glutathione sepharose (GE Healthcare). The GST tag was subsequently proteolytically removed. GST protein was used as a negative control in the nuclease assay and PAAN/MIF proteins purified by FPLC using Superdex 200 10/300GL column (GE Healthcare, Life Sciences) were also used in the nuclease assays.

Compound	inhibition of MNNG-induced parthanatic cell death (SH-SY5Y cells)	IC50 (SH-SY5Y cells) [nM]	protection against MNNG-induced parthanatic cell death in PAAN/MIF mutant cells (SH-SY5Y cells; PAAN/MIF KO SH-SY5Y cells expressing L61A, 60-63A or N72A, 1 μM)	inhibition of PAAN/MIF nuclease activity (PAAN/MIF)
COc1ccc(CC[C@H]2OC(=O)[C@@H]3CCCCN3C(=O)C(=O)C(C)(C)COC(=O)C=CCCN(C)C(=O)[C@@H]3CCCN3C(=O)[C@H](COC(C)(C)C)N(C)C(=O)C(c3ccccc3)NC(=O)[C@H](C)N(C)C(=O)COc3cc(F)cc2c3)cc1OC (mixture of isomers) [compound 121]	blocked	280	significantly reduced	inhibited
COc1ccc(CC[C@H]2OC(=O)[C@@H]3CCCCN3C(=O)C(=O)C(C)(C)COC(=O)C=CCCN(C)C(=O)[C@@H]3CCCN3C(=O)[C@H](COC(C)(C)C)N(C)C(=O)C(c3ccccc3)NC(=O)CN(C)C(=O)COc3cccc2c3)cc1OC (stereo partly drawn) [compound 41]	prominently blocked			prominently blocked
COc1ccc(CC[C@H]2OC(=O)[C@@H]3CCCCN3C(=O)C(=O)C(C)(C)COC(=O)C=CCCN(C)C(=O)[C@@H]3CCCN3C(=O)[C@H](COC(C)(C)C)N(C)C(=O)C(c3ccccc3)NC(=O)[C@H](C)N(C)C(=O)COc3cccc2c3)cc1OC (stereo partly drawn) [compound 56]	prominently blocked	520		prominently blocked; also recorded: inhibited
COc1ccc(CC[C@H]2OC(=O)[C@@H]3CCCCN3C(=O)C(=O)C(C)(C)COC(=O)C=CCCN(C)C(=O)CNC(=O)[C@H](C(C)C)N(C)C(=O)[C@@H](Cc3ccccc3)NC(=O)[C@H](CC(C)C)N(C)C(=O)CCC(=O)Nc3cccc2c3)cc1OC [compound 76]	prominently blocked			prominently blocked
COc1ccc(CC[C@H]2OC(=O)[C@@H]3CCCCN3C(=O)C(=O)C(C)(C)COC(=O)C=CCCN(C)C(=O)[C@H](C)NC(=O)[C@H](C(C)C)N(C)C(=O)[C@@H](Cc3ccccc3)NC(=O)[C@H](CC(C)C)N(C)C(=O)CCC(=O)Nc3cccc2c3)cc1OC [compound 77]	prominently blocked			prominently blocked
COc1ccc(CC[C@H]2OC(=O)[C@@H]3CCCCN3C(=O)C(=O)C(C)(C)COC(=O)C=CCCN(C)C(=O)[C@@H]3CCCN3C(=O)[C@H](CO)N(C)C(=O)C(c3ccccc3)NC(=O)[C@H](C)N(C)C(=O)COc3cccc2c3)cc1OC (stereo partly drawn) [compound 97]	has no effect			has no effect
